# Where no end group is shown, it is not given here. [ ]: non-standard residue; d: D form.
# Columns and labels:
# [1] = system: ZR-75-1 breast carcinoma cells; assay: ZR-75-1 proliferation with GO-203 analogs (trypan blue exclusion); type: cell-based, human; settings: 5 μM every day for 4 days
# Experimental: FIG. 10. Effect of different MUC1-CD CQC-region peptides on the growth of hormone-dependent breast carcinoma cells. To determine whether exposure to different MUC1-CD CQC-region containing peptides affect growth, ZR-75-1 breast carcinoma cells were treated with 5 μM of different peptides for 4 days and monitored for cell proliferation. […] Y-axis represents percent growth inhibition as compared to control untreated cells.
# FIG. 14. Effect of Shorter GO-203 peptides on proliferation of ZR-75-1 Breast Cancer Cells. Human ZR-75-1 breast cancer cells were grown in RPMI1640 supplemented with 10% heat-inactivated fetal bovine serum, 100 units/ml penicillin, 100 μg/ml streptomycin. Cells were treated with different peptides at 5 μM every day for four days and cell viability was determined by trypan blue exclusion.
# Multiple tumor cell lines (ZR-75-1 Hormone-dependent Breast Carcinoma; MDA-MB-231 Triple-Negative Breast Carcinoma; A549 Non-small Cell Lung Carcinoma; H-1975 Non-small Cell Lung Carcinoma) were grown in RPMI-1640 supplemented with 10% heat-inactivated fetal bovine serum, 100 units/mL penicillin and 100 μg/mL streptomycin and 2 mmol/L L-glutamine. Cells were treated separately with 5 μM of different analogs of GO-203 (FIG. 8) for 3 to 7 days and viability was determined by trypan blue exclusion. The proliferation of different cell lines was compared with cells treated with vehicle only.
# [2] = system: ZR-75-1 cells; assay: In vitro cytotoxicity and combination assays (MTS, CombiTool combination index); type: cell-based, human
# Experimental: FIGS. 15A-D. Effects of GO-203 in combination with different anti-cancer drugs. ZR-75-1 cells were exposed to the indicated concentrations of Cisplatin (FIG. 15A), Doxorubicin (FIG. 15B), rh-TNF-α (FIG. 15C) and Taxol (FIG. 15D) alone and in combination with GO-203. The treatment was sequential for Cisplatin, Doxorubicin and Taxol where cells were exposed to these agents for 72 h followed by treatment with 5 μM of GO-203 for 72 h. In studies with rh-TNF, cells were exposed concomitantly to different concentrations of rh-TNF alone and in combination with 5 μM of GO-203 for 72 h. The MTS assay was used to determine the cell survival. For all panels, the Y-axis represents percent growth as compared to control untreated cells.
# FIG. 16. GO-203 is additive or synergistic with anti-cancer agents. The plots show combination indexes against different effect levels (fraction affected). The effect level was obtained by treating cells with the indicated combinations of anti-cancer drugs and GO-203. Y-axis represents—fold growth as compared to control untreated cells.
# Cells were seeded in a 96-well flat-bottomed microtiter plate (Fisher) at 1000 cells per well for a 6-day experiment or at 3000 cells per well for a 3-day experiment. The cells were then cultured for 24 h. Anti-cancer drugs and GO-203 were diluted to the indicated concentrations and added to the cells. GO-203 (5 μmol/L) was added every 24 h for 72 h. Cell viability was determined by adding MTS reagent to the cells and reading the absorbance at 490 nm by a microplate reader.
# The IC50 values for all the anti-cancer drugs were determined by non-linear regression analysis using Graphpad Prism (GraphPad Software, San Diego Calif.). The CombiTool computer program (version 2.001, IMB Jena Biocomputing Group) was used to calculate the combination index within a dose range in the presence of 5 μmol/L GO-203.
# The combination index (CI) values generated by the CombiTool program were plotted against the fraction affected by the drug combination. The CI values were close to 1 for Cisplatin and GO-203, indicating an additive interaction. The CI values obtained for Doxorubicin (25, 50, 100, 200 nM), Taxol (25, 50, 100 nM) and TNF (10, 20, 40 ng/ml) with GO-203 were less than 1, supporting a strong additive effect or synergism (FIGS. 15A-D and 16).
# [3] = molecular target: T1, His-MUC1-CD (Homo sapiens, UniProt P15941); settings: BIAcore analysis, Leng et al., 2007; read-out: dissociation constant (Kd) of MUC1-CD dimers; cited from earlier work
# T1 sequence (P15941 1184-1255): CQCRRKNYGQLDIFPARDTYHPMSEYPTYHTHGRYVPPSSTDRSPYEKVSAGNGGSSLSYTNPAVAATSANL
# [4] = system: H-1975 non-small cell lung carcinoma cell line; settings: 5 μM, 3 days
# Experimental: H-1975 non-small cell lung carcinoma cell line was grown in DMEM with 10% heat-inactivated fetal bovine serum with 100 units/mL penicillin, 100 μg/ml streptomycin and 2 mmol/L L-glutamine. Cells were re-seeded one day before treatments. Cells were treated with 5 μM GO-200-2B for 3 days and cell viability was determined by trypan blue exclusion. Y-axis represents percent viability as compared to control untreated cells.
# H1975 non-small cell lung carcinoma cells were treated with 5 μM of different MUC1-CD CQC-region peptides for 6 days. Viable cell number on day 6 was determined by trypan blue exclusion. […] Y-axis represents relative growth as compared to control untreated cells.
# Moreover, another non-small cell lung carcinoma cell line, H-1975, was treated with 5 μM GO-200-2B for 3 days and monitored for cell growth as well as cell death.
# Multiple tumor cell lines (ZR-75-1 Hormone-dependent Breast Carcinoma; MDA-MB-231 Triple-Negative Breast Carcinoma; A549 Non-small Cell Lung Carcinoma; H-1975 Non-small Cell Lung Carcinoma) were grown in RPMI-1640 supplemented with 10% heat-inactivated fetal bovine serum, 100 units/mL penicillin and 100 μg/mL streptomycin and 2 mmol/L L-glutamine. […] The proliferation of different cell lines was compared with cells treated with vehicle only.
# [5] = system: DU145 prostate carcinoma cells; assay: DU145 cell growth by MTT assay; type: cell-based; settings: 5 μM, 4 days (FIG. 7)
# Experimental: FIG. 7. MUC1 7-mer inhibits prostate carcinoma. DU145 prostate carcinoma cells were treated with 5 μM CQC short (7-mer; SEQ ID NO: 53) or 5 μM CQC long (15-mer; SEQ ID NO: 63) peptides for 4 days. Cell growth was measured by MTT assay. The Y-axis represents percent growth inhibition compared to untreated cells (control).
# [6] = system: multiple carcinoma cell lines; assay: Inventors' recent studies of MUC1 C-terminal peptides on carcinoma cell lines; type: cell-based; settings: L-amino acid peptide
# Text: However, these MUC1-C-terminal peptides consists of L-amino acids. […] Consequently, they have generated an all-dextro form of the above described shorter MUC1 C-terminal peptide, in which the L-amino acids were changed to D-amino acids (GO-203). Moreover, to determine the minimum amino acid residues from the MUC1-C-terminal region that are required to retain the cell killing activity, they have also generated many different versions of GO-203 as described in FIG. 8.
compound,measurement,setting,value
"GO-208: shorter GO-203 peptide, SEQ ID NO:50 (CQCRR)",growth of ZR-75-1 cells,[1],significant inhibition of growth
GO-203: all-dextro form of the shorter MUC1 C-terminal peptide CQCRRKN (SEQ ID NO:53) ([dC][dQ][dC][dR][dR][dK][dN]; cysteine pairing not given here),growth of ZR-75-1 cells,[1],significant inhibition of growth
same,combination index (CI) with Cisplatin,[2]; Cisplatin 72 h followed by 5 μM GO-203 for 72 h,~1
same,combination index (CI) with Doxorubicin,"[2]; Doxorubicin 25, 50, 100, 200 nM, followed by 5 μM GO-203",less than 1
same,combination index (CI) with Taxol,"[2]; Taxol 25, 50, 100 nM, followed by 5 μM GO-203",less than 1
same,combination index (CI) with TNF,"[2]; rh-TNF 10, 20, 40 ng/ml concomitantly with 5 μM GO-203 for 72 h",less than 1
MUC1-CD: 72-amino acid MUC1 cytoplasmic domain (SEQ ID NO:1); forms dimers,Kd,[3],33 nM
CC(=O)N[C@@H](C)C(=O)N[C@@H](CCCCN)C(=O)N[C@@H](CCCCN)C(=O)N[C@@H](Cc1ccc(O)cc1)C(=O)N[C@@H](CC(C)C)C(=O)N[C@@]1(C)CCCC=CCCCC2(CCCC=CCCC[C@@](C)(C(=O)N[C@@H](CCCNC(=N)N)C(=O)N[C@@H](CCCCN)C(=O)N[C@@H](CC(N)=O)C(=O)N[C@@H](Cc3ccc(O)cc3)C(N)=O)NC(=O)[C@H](CS)NC(=O)[C@H](CCC(N)=O)NC(=O)[C@H](CS)NC2=O)NC(=O)[C@H](C)NC(=O)[C@H](CC(C)C)NC(=O)[C@H](C)NC1=O (stereo partly drawn) [GO-200-2B],cell death,[4],significant induction of cell death
MUC1/CQC 7-mer: shorter MUC1-C-terminal peptide CQCRRKN of L-amino acids (7-mer; SEQ ID NO: 53),in vitro activity relative to the 15-mer,[5],as potent as the MUC1/CQC 15-mer
same,killing of tumor cells,[6],active in killing tumor cells
"GO-209: shorter GO-203 peptide, SEQ ID NO:54 (CQCR)",growth of ZR-75-1 cells,[1],significant inhibition of growth
"GO-207: shorter GO-203 peptide, SEQ ID NO:4 (CQCRRK)",growth of ZR-75-1 cells,[1],significant inhibition of growth
